Experiment: Antagonist activity at rabbit CXCR2 by neutrophil chemotaxis assay

SMILES | IC50 [nM]
O=C(NCCc1c(-c2ccc(F)cc2)[nH]c2ccc(Br)cc12)NS(=O)(=O)c1ccccc1 [1-(2-(5-bromo-2-(4-fluorophenyl)-1H-indol-3-yl)ethyl)-3-(phenylsulfonyl)urea] | 1700
N#Cc1ccc2[nH]c(-c3ccc(F)cc3)c(CCCC(=O)NS(=O)(=O)C(F)(F)F)c2c1 [4-(5-cyano-2-(4-fluorophenyl)-1H-indol-3-yl)-N-(trifluoromethylsulfonyl)butanamide] | 3000
CNS(=O)(=O)NC(=O)CCCc1c(-c2ccc(F)cc2)[nH]c2ccc(C#N)cc12 [4-[5-cyano-2-(4-fluorophenyl)-1H-indol-3-yl]-N-[(methylamino)sulfonyl]butanamide] | 1300

More lines, in order of falling IC50, values ahead:

IC50 [nM] | SMILES
5800 | CS(=O)(=O)NC(=O)NCCc1c(-c2ccc(F)cc2)[nH]c2ccc(Br)cc12 [1-(2-(5-bromo-2-(4-fluorophenyl)-1H-indol-3-yl)ethyl)-3-(methylsulfonyl)urea]
2100 | CS(=O)(=O)NC(=O)CCCc1c(-c2ccc(F)cc2)[nH]c2ccc(C#N)cc12 [4-(5-cyano-2-(4-fluorophenyl)-1H-indol-3-yl)-N-(methylsulfonyl)butanamide]
700 | CN(C)S(=O)(=O)NC(=O)CCCc1c(-c2ccc(F)cc2)[nH]c2ccc(C#N)cc12 [4-[5-cyano-2-(4-fluorophenyl)-1H-indol-3-yl]-N-(dimethylsulfamoyl)butanamide]

— BindingDB's records for doi:10.1016/j.bmcl.2008.01.127 (Johnson & Johnson Pharmaceutical Research and Development, 2008)
